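Interpolation was linear, between the two tested concentrations surrounding the appropriate level; five concentrations were tested over 48 hours in 96-well plates. At the TGI there is no net growth.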
What was measured:
Assay in all cases: NCI tumour cell line growth inhibition, 48 h
[1] = tested on: OVCAR-5 ovarian
[2] = tested on: COLO 205 colon
[3] = tested on: SNB-19 CNS
[4] = tested on: NCI-H226 lung
[5] = tested on: DU-145 prostate
[6] = tested on: ACHN renal
[7] = tested on: RPMI-8226 leukemia
[8] = tested on: NCI-H522 lung
[9] = tested on: M14 melanoma
[10] = tested on: MDA-MB-231 breast
[11] = tested on: HOP-62 NSCLC
[12] = tested on: HCT-116 colon
[13] = tested on: K-562 leukemia
[14] = tested on: SF-295 CNS
[15] = tested on: HL-60(TB) leukemia
[16] = tested on: KM12 colon
[17] = tested on: CAKI-1 renal
[18] = tested on: OVCAR-4 ovarian
[19] = tested on: CCRF-CEM leukemia
[20] = tested on: SF-539 CNS
[21] = tested on: 786-0 renal
[22] = tested on: SF-268 CNS
[23] = tested on: U251 CNS
[24] = tested on: SK-MEL-28 melanoma
[25] = tested on: NCI/ADR-RES ovarian
[26] = tested on: SN12C renal
[27] = tested on: MALME-3M melanoma
[28] = tested on: SW-620 colon
[29] = tested on: NCI-H23 lung
[30] = tested on: IGROV1 ovarian
[31] = tested on: HOP-92 NSCLC
[32] = tested on: SK-MEL-2 melanoma
[33] = tested on: OVCAR-8 ovarian
[34] = tested on: LOX IMVI melanoma
[35] = tested on: UACC-257 melanoma
[36] = tested on: HCT-15 colon
[37] = tested on: NCI-H460 lung
[38] = tested on: SK-MEL-5 melanoma
[39] = tested on: SR leukemia
[40] = tested on: EKVX NSCLC
[41] = tested on: A549 NSCLC
[42] = tested on: HT29 colon
[43] = tested on: TK-10 renal
[44] = tested on: SNB-75 CNS
[45] = tested on: MCF7 breast
[46] = tested on: BT-549 breast
[47] = tested on: PC-3 prostate
[48] = tested on: HCC-2998 colon

CC1CCC(C(C)C)C(OC(=O)NCn2cc(-c3ccccc3)nn2)C1 (stereo not drawn)
TGI [1]: > 100 µM
TGI [2]: > 100 µM
TGI [3]: > 100 µM
TGI [4]: > 100 µM
TGI [5]: > 100 µM
TGI [6]: > 100 µM
TGI [7]: > 100 µM
TGI [8]: > 100 µM
TGI [9]: > 100 µM
TGI [10]: > 100 µM
TGI [11]: > 100 µM
TGI [12]: > 100 µM
TGI [13]: > 100 µM
TGI [14]: > 100 µM
TGI [15]: > 100 µM
TGI [16]: > 100 µM
TGI [17]: > 100 µM
TGI [18]: > 100 µM
TGI [19]: > 100 µM
TGI [20]: > 100 µM
TGI [21]: > 100 µM
TGI [22]: > 100 µM
TGI [23]: > 100 µM
TGI [24]: > 100 µM
TGI [25]: > 100 µM
TGI [26]: > 100 µM
TGI [27]: > 100 µM
TGI [28]: > 100 µM
TGI [29]: > 100 µM
TGI [30]: > 100 µM
TGI [31]: > 100 µM
TGI [32]: > 100 µM
TGI [33]: > 100 µM
TGI [34]: > 100 µM
TGI [35]: > 100 µM
TGI [36]: > 100 µM
TGI [37]: > 100 µM
TGI [38]: > 100 µM
TGI [39]: > 100 µM
TGI [40]: > 100 µM
TGI [41]: > 100 µM
TGI [42]: > 100 µM
TGI [43]: > 100 µM
TGI [44]: 86 µM
TGI [45]: > 100 µM
TGI [46]: > 100 µM
TGI [47]: > 100 µM
TGI [48]: > 100 µM

From PubChem BioAssay (NCI)
